Experimental data reported in patent publication US11078193B2 (priority 2014, dated 2021).

Tests used:
HBV [1] = assay: anti-HBV activity, HepG2.2.15 stable transfected cell line, HBV DNA from secreted virions by realtime PCR; type: cell-based; details: Hepatitis B virus, 144 h, HepG2.2.15 cells, 6 days of treatment
[2] = ATP based toxicity assay (ATPlite), HepG2 cell line; details: human, HepG2 cells, ATPlite (ATP levels)
Experimental: Alternatively, cytotoxicity was determined via an ATP-assay: The ATPlite kit from Perkin Elmer was used to assess compound cytotoxicity on the HepG2 cell line by determination of the ATP (adenosine triphosphate) levels. ATP is a marker for functional integrity and cell viability, because it is present in all metabolically active cells and any form of cell injury will result in a rapid decline in cellular ATP concentration. After compound incubation, 1 volume of ATPlite solution was added to the cells and the luminescence signal was measured.

HBV [3] = assay: anti HBV activity, HepG2.117 inducibly HBV producing cell line (Tet-off), intracellular HBV DNA by realtime PCR; type: cell-based; details: Hepatitis B virus, 72 h, HepG2.117 cells, 3 days of treatment
[4] = Cytotoxicity, HepG2 cells, Resazurin assay; type: cell-based; details: human

Structure (SMILES)	EC50 (HBV [1]) [µM]	CC50 at 4 days [2] [µM]	EC50 (HBV [3]) [µM]	CC50 at 4 days [4] [µM]
Cc1cc(NC(=O)c2c(F)c(S(=O)(=O)N[C@H](C)C(C)(F)F)cn2C)cc(C(F)F)n1 [Compound 178, N-[2-(difluoromethyl)-6-methyl-4-pyridyl]-4-[[(1R)-2,2-difluoro-1-methyl-propyl]sulfamoyl]-3-fluoro-1-methyl-pyrrole-2-carboxamide]	0.24	> 25	0.05	–
C[C@@H](NS(=O)(=O)c1cn(C)c(C(=O)Nc2ccnc(F)c2)c1Cl)C(C)(F)F [Compound 95, 3-chloro-4-[[(1R)-2,2-difluoro-1-methyl-propyl]sulfamoyl]-N-(2-fluoro-4-pyridyl)-1-methyl-pyrrole-2-carboxamide]	0.06	> 25	0.04	21.6
Cn1cc(S(=O)(=O)NC2(C)CC(F)(F)C2)c(F)c1C(=O)Nc1ccnc(Cl)c1F [Compound 81, N-(2-chloro-3-fluoro-4-pyridyl)-4-[(3,3-difluoro-1-methyl-cyclobutyl)sulfamoyl]-3-fluoro-1-methyl-pyrrole-2-carboxamide]	0.01	> 25	0.008	24.3
Cc1c(S(=O)(=O)N[C@H](C)C(F)(F)F)c(F)c(C(=O)Nc2ccnc(Cl)c2)n1C [Compound 200, N-(2-chloro-4-pyridyl)-3-fluoro-1,5-dimethyl-4-[[(1R)-2,2,2-trifluoro-1-methyl-ethyl]sulfamoyl]pyrrole-2-carboxamide]	0.11	> 25	0.02	–
C[C@@H](NS(=O)(=O)c1cn(C)c(C(=O)Nc2ccnc(C(F)F)c2)c1Cl)C(C)(F)F [Compound 97, 3-chloro-4-[[(1R)-2,2-difluoro-1-methyl-propyl]sulfamoyl]-N-[2-(difluoromethyl)-4-pyridyl]-1-methyl-pyrrole-2-carboxamide]	0.02	> 25	0.02	> 25
C[C@@H](NS(=O)(=O)c1cn(C)c(C(=O)Nc2ccnc(F)c2)c1F)C(F)(F)F [Compound 24, 3-fluoro-N-(2-fluoro-4-pyridyl)-1-methyl-4-[[(1R)-2,2,2-trifluoro-1-methyl-ethyl]sulfamoyl]pyrrole-2-carboxamide]	0.04	> 25	0.04	> 25
Cc1cc(NC(=O)c2c(F)c(S(=O)(=O)N[C@H](C)C(F)(F)F)cn2C)cc(Br)n1 [Compound 154, N-(2-bromo-6-methyl-4-pyridyl)-3-fluoro-1-methyl-4-[[(1R)-2,2,2-trifluoro-1-methyl-ethyl]sulfamoyl]pyrrole-2-carboxamide]	–	> 25	0.08	> 25
C[C@@H](NS(=O)(=O)c1cn(C)c(C(=O)Nc2ccnc(C(F)F)c2)c1F)C(C)(F)F [Compound 88, 4-[[(1R)-2,2-difluoro-1-methyl-propyl]sulfamoyl]-N-[2-(difluoromethyl)-4-pyridyl]-3-fluoro-1-methyl-pyrrole-2-carboxamide]	0.007	> 25	0.01	> 25
Cc1cc(NC(=O)c2c(Cl)c(S(=O)(=O)N[C@H](C)C(F)(F)F)cn2C)cc(C(F)F)n1 [Compound 177, 3-chloro-N-[2-(difluoromethyl)-6-methyl-4-pyridyl]-1-methyl-[[(1R)-2,2,2-trifluoro-1-methyl-ethyl]sulfamoyl]pyrrole-2-carboxamide]	0.26	> 25	0.1	–
Cn1cc(S(=O)(=O)NC2(C)CC(F)(F)C2)c(Cl)c1C(=O)Nc1cc(F)nc(F)c1 [Compound 115, 3-chloro-4-[(3,3-difluoro-1-methyl-cyclobutyl)sulfamoyl]-N-(2,6-difluoro-4-pyridyl)-1-methyl-pyrrole-2-carboxamide]	–	> 25	0.006	> 25
Cc1cc(NC(=O)c2c(F)c(S(=O)(=O)NC3(C)CC(F)(F)C3)cn2C)cc(F)n1 [Compound 134, 4-[(3,3-difluoro-1-methyl-cyclobutyl)sulfamoyl]-3-fluoro-N-(2-fluoro-6-methyl-4-pyridyl)-1-methyl-pyrrole-2-carboxamide]	–	> 25	0.01	> 25
C[C@@H](NS(=O)(=O)c1cc(C(=O)Nc2ccnc(C(F)F)c2)n(C)c1)C(C)(F)F [Compound 100, 4-[[(1R)-2,2-difluoro-1-methyl-propyl]sulfamoyl]-N-[2-(difluoromethyl)-4-pyridyl]-1-methyl-pyrrole-2-carboxamide]	–	> 25	0.08	> 25
Cc1cc(NC(=O)c2c(F)c(S(=O)(=O)N[C@H](C)C(C)(F)F)cn2C)cc(F)n1 [Compound 160, 4-[[(1R)-2,2-difluoro-1-methyl-propyl]sulfamoyl]-3-fluoro-N-(2-fluoro-6-methyl-4-pyridyl)-1-methyl-pyrrole-2-carboxamide]	–	> 25	0.01	> 25
Cc1cc(NC(=O)c2c(F)c(S(=O)(=O)N[C@H](C)C(F)(F)F)cn2C)cc(C(F)F)n1 [Compound 179, N-[2-(difluoromethyl)-6-methyl-4-pyridyl]-3-fluoro-1-methyl-[[(1R)-2,2,2-trifluoro-1-methyl-ethyl]sulfamoyl]pyrrole-2-carboxamide]	0.21	> 25	0.07	–
Cc1c(S(=O)(=O)N[C@H](C)C(F)(F)F)c(F)c(C(=O)Nc2cc(F)nc(F)c2)n1C [Compound 199, N-(2,6-difluoro-4-pyridyl)-3-fluoro-1,5-dimethyl-4-[[(1R)-2,2,2-trifluoro-1-methyl-ethyl]sulfamoyl]pyrrole-2-carboxamide]	< 0.1	> 25	0.006	–
Cn1cc(S(=O)(=O)NC2(C)CC(F)(F)C2)c(F)c1C(=O)Nc1cc(F)nc(F)c1 [Compound 132, 4-[(3,3-difluoro-1-methyl-cyclobutyl)sulfamoyl]-N-(2,6-difluoro-4-pyridyl)-3-fluoro-1-methyl-pyrrole-2-carboxamide]	–	> 25	0.01	> 25
Cc1cc(NC(=O)c2c(Cl)c(S(=O)(=O)N[C@H](C)C(C)(F)F)cn2C)cc(F)n1 [Compound 146, 3-chloro-4-[[(1R)-2,2-difluoro-1-methyl-propyl]sulfamoyl]-N-(2-fluoro-6-methyl-4-pyridyl)-1-methyl-pyrrole-2-carboxamide]	–	> 25	0.03	> 25
C[C@@H](NS(=O)(=O)c1cn(C)c(C(=O)Nc2ccnc(Br)c2F)c1Cl)C(F)(F)F [Compound 139, N-(2-bromo-3-fluoro-4-pyridyl)-3-chloro-1-methyl-4-[[(1R)-2,2,2-trifluoro-1-methyl-ethyl]sulfamoyl]pyrrole-2-carboxamide]	–	> 25	0.02	> 25
Cn1cc(S(=O)(=O)NC2(C(F)(F)F)CC2)c(F)c1C(=O)Nc1ccnc(Cl)c1 [Compound 175, N-(2-chloro-4-pyridyl)-3-fluoro-1-methyl-4-[[1-(trifluoromethyl)cyclopropyl]sulfamoyl]pyrrole-2-carboxamide]	0.12	> 25	0.02	–
C[C@@H](NS(=O)(=O)c1cn(C)c(C(=O)Nc2cc(F)nc(F)c2Cl)c1Cl)C(F)(F)F [Compound 185, 3-chloro-N-(3-chloro-2,6-difluoro-4-pyridyl)-1-methyl-4-[[(1R)-2,2,2-trifluoro-1-methyl-ethyl]sulfamoyl]pyrrole-2-carboxamide]	–	> 25	0.74	> 25
Cc1cc(NC(=O)c2c(F)c(S(=O)(=O)N[C@H](C)C(C)(F)F)cn2C)cc(Cl)n1 [Compound 158, N-(2-chloro-6-methyl-4-pyridyl)-4-[[(1R)-2,2-difluoro-1-methyl-propyl]sulfamoyl]-3-fluoro-1-methyl-pyrrole-2-carboxamide]	–	> 25	0.05	> 25
C[C@@H](NS(=O)(=O)c1cn(C)c(C(=O)Nc2ccnc(Br)c2F)c1F)C(C)(F)F [Compound 176, N-(2-bromo-3-fluoro-4-pyridyl)-4-[[(1R)-2,2-difluoro-1-methyl-propyl]sulfamoyl]-3-fluoro-1-methyl-pyrrole-2-carboxamide]	< 0.1	> 25	0.003	–
Cn1cc(S(=O)(=O)NC2(C)CC(F)(F)C2)c(Cl)c1C(=O)Nc1ccnc(Br)c1 [Compound 113, N-(2-bromo-4-pyridyl)-3-chloro-4-[(3,3-difluoro-1-methyl-cyclobutyl)sulfamoyl]-1-methyl-pyrrole-2-carboxamide]	–	23.7	0.01	> 25
Cn1cc(S(=O)(=O)NC2(C)CC(F)(F)C2)c(F)c1C(=O)Nc1ccnc(C#N)c1 [Compound 53, N-(2-cyano-4-pyridyl)-4-[(3,3-difluoro-1-methyl-cyclobutyl)sulfamoyl]-3-fluoro-1-methyl-pyrrole-2-carboxamide]	–	> 25	0.04	> 25
Cn1cc(S(=O)(=O)NC2(C(F)(F)F)CCC2)c(Cl)c1C(=O)Nc1ccnc(C(F)F)c1 [Compound 108, 3-chloro-N-[2-(difluoromethyl)-4-pyridyl]-1-methyl-4-[[1-(trifluoromethyl)cyclobutyl]sulfamoyl]pyrrole-2-carboxamide]	–	> 25	0.02	> 25
